From patent US11891369B2, “Compounds for binding proprotein convertase subtilisin/kexin type 9” (SRX Cardio, LLC, priority 2016, dated 2024)

Legend:
PCSK9 [1] = target: T1, PCSK9 (Homo sapiens, UniProt Q8NBP7); assay: LDLR flow cytometric analysis (LDL-R assay); type: cell-based; details: percentage recovery in the LDL-R assay at 20 uM concentration
T1 construct: host or cells: added to HepG2, HuH7, FL83B or shPCSK9 knockdown lines
Description: Cells, such as HepG2, HuH7, FL83B, or a cell line transfected with a short-hairpin PCSK9 knockdown sequence (e.g., HepG2/shPCSK9, HuH7/shPCSK9) can be cultured following routine procedures, such as those described by Benjannet et al., “Effects of the prosegment and pH on the activity of PCSK9: evidence for additional processing events” J Biol Chem. 285(52): 40965-40978 (2010), which is hereby incorporated by reference in its entirety.
LDLR levels can be measured using flow cytometry or fluorescence activated cell sorting (FACS) using protocols adapted from Benjannet et al., “Effects of the prosegment and pH on the activity of PCSK9: evidence for additional processing events” J Biol Chem. 285(52): 40965-40978 (2010) and “Composition and Methods of Use of Small Molecules as Binding Ligands for the Modulation of Proprotein Convertase Subtilisin/Kexin Type 9 (PCSK9) Protein Activity” (WO2016029037), which are incorporated by reference in their entirety.
Cells, such as HepG2, HuH7, FL83B, or a cell line transfected with a short-hairpin PCSK9 knockdown sequence such as HepG2/shPCSK9, HuH7/shPCSK9, or FL83B/shPCSK9 are cultured in media composed of complete, high glucose DMEM (Invitrogen) with 10% fetal bovine serum (Life Technologies), supplemented with penicillin-streptomycin (Life Technologies). Cells are plated in a 24-well plate, at 125 k cells/well, and cultured at 37° C. for 12-24 h. Culture media is removed and replaced with fresh culture media or culture media plus a predetermined amount of recombinant PCSK9 (final 5 ug/ml). Wells evaluating test compounds are dosed with concentrations ranging from 0 nM to 100 uM.
Following an incubation period of 4-6 hours at 37° C., the media is removed and the cells are rinsed by adding 0.5 ml of complete D-PBS (i.e., Dulbecco's phosphate buffered saline (D-PBS, Life Technologies) supplemented with 0.5% bovine serum albumin (BSA, Sigma) and 1 g/L glucose (Sigma)). The wash media is carefully aspirated, and cells are released from the plate using 200 uls of TrypLE Express (Life Technologies) by incubating for 5-10 minutes at 37° C. The TyrpLE-Cell suspension is inactivated by adding 100 uls of Fetal Bovine Serum, transferred to a v-bottom plate, and centrifuged at 250× gravity for 5 minutes. Following centrifugation, the supernatant is aspirated and the cell pellet is resuspended in 100 uL of complete D-PBS, and centrifuged at 250× gravity for 5 minutes. Following centrifugation, the supernatant is aspirated and the cell pellet is resuspended in 100 uls of antibody staining solution (600 uls of anti-LDLr-PE in complete D-PBS) and incubated on ice, protected from light, for 30 minutes. The cells are then pelleted by centrifugation, resuspended in 100 uL of 4′,6-Diamidino-2-phenylindole (DAPI, Cayman Chemical) or 7-aminoactinomycin D (7AAD, Life Technologies) staining solution to measure cell viability
Cells are analyzed for both cell viability marker (dead cells) and LDLR in live cells using a flow cytometer per the manufacturer's operating manual. Cells incubated with small molecule compounds that are inhibitors of PCSK9 will be expected to show increased amounts of LDLR, relative to control (no compound) specimens, and cells incubated with small molecule compounds that are activators of PCSK9 will be expected to show decreased amounts of LDLR relative to control (no compound) specimens.

PCSK9 [2] = target: T1, PCSK9; assay: Cellular DiI-LDL uptake analysis (LDL-uptake assay); type: cell-based; details: for DiI-LDL uptake (% of control) at 20 µM: read-out: LDL-uptake % of control; for remaining activity at 20 µM: percentage uptake of DiI-LDL over the control at 20 uM concentration
Description: Cells, such as HepG2, HuH7, FL83B, or a cell line transfected with a short-hairpin PCSK9 knockdown sequence such as HepG2/shPCSK9, HuH7/shPCSK9, or FL83B/shPCSK9 are plated and cultured at 37° C. for 12-24 h. Culture media is removed and replaced with fresh lipoprotein-depleted culture media supplemented with 5 ug/mL of DiI-LDL (Kalen Biomedical) or lipoprotein-depleted culture media supplemented with 5 ug/mL of DiI-LDL plus a predetermined concentration of recombinant PCSK9, for example a 10 nM final concentration of PCSK9. Lipoprotein-depleted culture media can be composed of DMEM (Invitrogen) with 10% lipoprotein-depleted fetal bovine serum (Kalen Biomedical) and supplemented with penicillin-streptomycin (Life Technologies). Cells are dosed with small molecule test compounds at doses ranging from 0 nM to 100 uM.
The lipoprotein-depleted media is removed and cells rinsed three times with phosphate buffered saline. A final volume of phosphate buffered saline is added back to the wells. The DiI fluorescence is measured with a plate reader using an exciting wavelength of 550 nm and the resulting emission at 590 nm is measured. The Hoechst stain fluorescence is measured with a plate reader using an exciting wavelength of 355 nm and the resulting emission at 460 nm is measured.
Cells are analyzed by for both Hoechst stain (DNA content) and DiI-LDL fluorescence.

T1 sequence (Q8NBP7 153-692): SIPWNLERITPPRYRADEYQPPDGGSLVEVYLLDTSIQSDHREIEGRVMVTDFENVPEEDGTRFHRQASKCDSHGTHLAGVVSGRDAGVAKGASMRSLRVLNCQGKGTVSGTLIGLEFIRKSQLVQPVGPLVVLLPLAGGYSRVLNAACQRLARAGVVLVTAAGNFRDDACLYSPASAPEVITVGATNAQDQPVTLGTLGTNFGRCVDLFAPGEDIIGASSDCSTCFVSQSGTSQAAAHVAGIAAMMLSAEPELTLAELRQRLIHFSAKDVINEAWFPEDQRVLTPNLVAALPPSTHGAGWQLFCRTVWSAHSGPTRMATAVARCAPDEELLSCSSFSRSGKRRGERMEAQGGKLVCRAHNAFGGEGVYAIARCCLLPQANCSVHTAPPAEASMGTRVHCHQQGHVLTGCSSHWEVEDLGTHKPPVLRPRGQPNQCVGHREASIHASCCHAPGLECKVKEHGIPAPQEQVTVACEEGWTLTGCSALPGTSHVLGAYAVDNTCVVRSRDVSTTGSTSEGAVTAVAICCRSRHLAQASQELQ

| Compound | LDL-R % Recovered (PCSK9 [1]) | DiI-LDL uptake (% of control) at 20 µM (PCSK9 [2]) [%] | remaining activity at 20 µM (PCSK9 [2]) [%] |
| --- | --- | --- | --- |
| FC(F)(F)c1ccc(N2CCNCC2)c2ccccc12 [compound 1, 1-(4-(Trifluoromethyl)naphthalen-1-yl)piperazine] | +++ (>30% recovery) | > 150 |  |
| c1ccc2c(N3CCNCC3)ccc(OC3CCNCC3)c2c1 [compound 4, 1-(4-(Piperidin-4-yloxy)naphthalen-1-yl)piperazine] | + (0-10% recovery) |  | > 150 |
| c1ccc2c(N3CCNCC3)ccc(NC3CCNCC3)c2c1 [compound 5, N-(4-(Piperazin-1-yl)naphthalen-1-yl)piperidin-4-amine] | ++ (10-30% recovery) |  | < 100 |
| O=S(=O)(c1ccc(N2CCNCC2)c2ccccc12)C1CCNCC1 [compound 7, 1-(4-(Piperidin-4-ylsulfonyl)naphthalen-1-yl)piperazine] | + (0-10% recovery) |  | > 150 |
| O=C(c1ccc(N2CCNCC2)c2ccccc12)N1CCNCC1 [compound 8, Piperazin-1-yl(4-(piperazin-1-yl)naphthalen-1-yl)methanone] | + (0-10% recovery) |  | > 150 |
| NC(=O)N1CCN(c2cccc3ccccc23)CC1 [compound 11, 4-(Naphthalen-1-yl)piperazine-1-carboxamide] | + (0-10% recovery) | < 100 |  |
| O=S(=O)(c1ccc(C2CCNCC2)c2ccccc12)C1CCNCC1 [compound 23, 4-((4-(Piperidin-4-yl)naphthalen-1-yl)sulfonyl)piperidine] | + (0-10% recovery) |  | > 150 |
| Cc1ccc(C2CCNCC2)c2ccccc12 [compound 43, 4-(4-Methylnaphthalen-1-yl)piperidine] | ++ (10-30% recovery) |  | > 150 |
| O=S(=O)(Nc1ccccc1)c1ccc(N2CCNCC2)c2ccccc12 [compound 73, N-phenyl-4-(piperazin-1-yl)naphthalene-1-sulfonamide] | + (0-10% recovery) |  | 100 to 150 |
| c1ccc2c(N3CCNCC3)cccc2c1 [compound 107, 1-(naphthalen-1-yl)piperazine] | ++ (10-30% recovery) | > 150 |  |
